Assay results as given in PubChem BioAssay (NCI).
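96-well plates; 48 h exposure; 5 concentrations. Endpoints by linear interpolation between flanking doses. Not reached: highest tested concentration assigned. Here, GI50 denotes the concentration required for 50% inhibition of growth. TGI: total growth inhibition.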

Columns and labels:
Assay in all cases: NCI-60 cell line screen, 48 h
[1] = tested on: 786-0 renal
[2] = tested on: A498 renal
[3] = tested on: A549 NSCLC
[4] = tested on: ACHN renal
[5] = tested on: CAKI-1 renal
[6] = tested on: CCRF-CEM leukemia
[7] = tested on: DU-145 prostate
[8] = tested on: EKVX NSCLC
[9] = tested on: HCC-2998 colon
[10] = tested on: HCT-116 colon
[11] = tested on: HCT-15 colon
[12] = tested on: HL-60(TB) leukemia
[13] = tested on: HOP-62 NSCLC
[14] = tested on: HOP-92 NSCLC
[15] = tested on: HS 578T breast
[16] = tested on: IGROV1 ovarian
[17] = tested on: K-562 leukemia
[18] = tested on: KM12 colon
[19] = tested on: LOX IMVI melanoma
[20] = tested on: M14 melanoma
[21] = tested on: MALME-3M melanoma
[22] = tested on: MDA-MB-231 breast
[23] = tested on: MDA-MB-435
[24] = tested on: MDA-MB-468 breast
[25] = tested on: MOLT-4 leukemia
[26] = tested on: NCI-H226 lung
[27] = tested on: NCI-H23 lung
[28] = tested on: NCI-H460 lung
[29] = tested on: NCI-H522 lung
[30] = tested on: NCI/ADR-RES ovarian
[31] = tested on: OVCAR-3 ovarian
[32] = tested on: OVCAR-4 ovarian
[33] = tested on: OVCAR-5 ovarian
[34] = tested on: OVCAR-8 ovarian
[35] = tested on: PC-3 prostate
[36] = tested on: RPMI-8226 leukemia
[37] = tested on: RXF 393 renal
[38] = tested on: SF-268 CNS
[39] = tested on: SF-295 CNS
[40] = tested on: SF-539 CNS
[41] = tested on: SK-MEL-2 melanoma
[42] = tested on: SK-MEL-28 melanoma
[43] = tested on: SK-MEL-5 melanoma
[44] = tested on: SK-OV-3 ovarian
[45] = tested on: SN12C renal
[46] = tested on: SNB-19 CNS
[47] = tested on: SR leukemia
[48] = tested on: SW-620 colon
[49] = tested on: TK-10 renal
[50] = tested on: U251 CNS
[51] = tested on: UACC-257 melanoma
[52] = tested on: UACC-62 melanoma
[53] = tested on: UO-31 renal

**Q.** Which GI50 [1] does the source give for CN(C)CCn1c2ccccc2c2nc3ccc([N+](=O)[O-])cc3nc21 here?
**A.** The GI50 was 1310 nM.

**Q.** What about the TGI [1] of the same compound?
**A.** Its TGI is 6550 nM.

**Q.** What about the GI50 [2] of the same compound?
**A.** Its GI50 is 1740 nM.

**Q.** And the TGI [2]?
**A.** Its TGI is 4560 nM.

**Q.** What about the GI50 [3] of the same compound?
**A.** The GI50 was 438 nM.

**Q.** And the TGI [3]?
**A.** The TGI was 1830 nM.

**Q.** What about the GI50 [4] of the same compound?
**A.** The GI50 was 322 nM.

**Q.** What about the TGI [4] of the same compound?
**A.** The TGI was 1100 nM.

**Q.** What about the GI50 [5] of the same compound?
**A.** Its GI50 is 368 nM.

**Q.** And the TGI [5]?
**A.** Its TGI is 2710 nM.

**Q.** And the GI50 [6]?
**A.** The GI50 was 667 nM.

**Q.** And the TGI [6]?
**A.** Its TGI is 4370 nM.

**Q.** What about the GI50 [7] of the same compound?
**A.** Its GI50 is 1710 nM.

**Q.** And the TGI [7]?
**A.** Its TGI is 9910 nM.

**Q.** What about the GI50 [8] of the same compound?
**A.** Its GI50 is 1600 nM.

**Q.** What about the TGI [8] of the same compound?
**A.** The TGI was 5000 nM.

**Q.** And the GI50 [9]?
**A.** Its GI50 is 1470 nM.

**Q.** And the TGI [9]?
**A.** Its TGI is 3720 nM.

**Q.** And the GI50 [10]?
**A.** Its GI50 is 752 nM.

**Q.** And the TGI [10]?
**A.** Its TGI is 5940 nM.

**Q.** And the GI50 [11]?
**A.** The GI50 was 725 nM.

**Q.** And the TGI [11]?
**A.** The TGI was 4060 nM.

**Q.** And the GI50 [12]?
**A.** Its GI50 is 256 nM.

**Q.** And the TGI [12]?
**A.** Its TGI is 698 nM.

**Q.** And the GI50 [13]?
**A.** The GI50 was 1080 nM.

**Q.** And the TGI [13]?
**A.** Its TGI is 4760 nM.

**Q.** What about the GI50 [14] of the same compound?
**A.** The GI50 was 197 nM.

**Q.** What about the TGI [14] of the same compound?
**A.** The TGI was 2290 nM.

**Q.** What about the GI50 [15] of the same compound?
**A.** Its GI50 is 2160 nM.

**Q.** And the TGI [15]?
**A.** Its TGI is > 100000 nM.

**Q.** What about the GI50 [16] of the same compound?
**A.** The GI50 was 1070 nM.

**Q.** And the TGI [16]?
**A.** Its TGI is 9460 nM.

**Q.** And the GI50 [17]?
**A.** The GI50 was 931 nM.

**Q.** And the TGI [17]?
**A.** The TGI was 11300 nM.

**Q.** And the GI50 [18]?
**A.** Its GI50 is 1530 nM.

**Q.** What about the TGI [18] of the same compound?
**A.** The TGI was 9150 nM.

**Q.** What about the GI50 [19] of the same compound?
**A.** Its GI50 is 541 nM.

**Q.** What about the TGI [19] of the same compound?
**A.** The TGI was 1950 nM.

**Q.** What about the GI50 [20] of the same compound?
**A.** Its GI50 is 1710 nM.

**Q.** What about the TGI [20] of the same compound?
**A.** The TGI was > 100000 nM.

**Q.** And the GI50 [21]?
**A.** The GI50 was 709 nM.

**Q.** What about the TGI [21] of the same compound?
**A.** Its TGI is 3410 nM.

**Q.** What about the GI50 [22] of the same compound?
**A.** Its GI50 is 1870 nM.

**Q.** What about the TGI [22] of the same compound?
**A.** The TGI was 5700 nM.

**Q.** What about the GI50 [23] of the same compound?
**A.** The GI50 was 2300 nM.

**Q.** And the TGI [23]?
**A.** The TGI was > 100000 nM.

**Q.** And the GI50 [24]?
**A.** Its GI50 is 514 nM.

**Q.** And the TGI [24]?
**A.** The TGI was 2270 nM.

**Q.** What about the GI50 [25] of the same compound?
**A.** The GI50 was 410 nM.

**Q.** What about the TGI [25] of the same compound?
**A.** Its TGI is 2900 nM.

**Q.** What about the GI50 [26] of the same compound?
**A.** Its GI50 is 1270 nM.

**Q.** And the TGI [26]?
**A.** Its TGI is 3260 nM.

**Q.** What about the GI50 [27] of the same compound?
**A.** Its GI50 is 1200 nM.

**Q.** What about the TGI [27] of the same compound?
**A.** The TGI was 3640 nM.

**Q.** And the GI50 [28]?
**A.** The GI50 was 395 nM.

**Q.** And the TGI [28]?
**A.** The TGI was 2190 nM.

**Q.** And the GI50 [29]?
**A.** Its GI50 is 988 nM.

**Q.** And the TGI [29]?
**A.** Its TGI is 4220 nM.

**Q.** And the GI50 [30]?
**A.** The GI50 was 1280 nM.

**Q.** And the TGI [30]?
**A.** Its TGI is 11900 nM.

**Q.** What about the GI50 [31] of the same compound?
**A.** The GI50 was 2010 nM.

**Q.** What about the TGI [31] of the same compound?
**A.** Its TGI is 7340 nM.

**Q.** What about the GI50 [32] of the same compound?
**A.** The GI50 was 2760 nM.

**Q.** And the TGI [32]?
**A.** Its TGI is > 100000 nM.

**Q.** What about the GI50 [33] of the same compound?
**A.** Its GI50 is 2310 nM.

**Q.** And the TGI [33]?
**A.** Its TGI is 6510 nM.

**Q.** What about the GI50 [34] of the same compound?
**A.** The GI50 was 907 nM.

**Q.** What about the TGI [34] of the same compound?
**A.** Its TGI is 5510 nM.

**Q.** What about the GI50 [35] of the same compound?
**A.** The GI50 was 1140 nM.

**Q.** What about the TGI [35] of the same compound?
**A.** Its TGI is > 100000 nM.

**Q.** And the GI50 [36]?
**A.** Its GI50 is 1230 nM.

**Q.** What about the TGI [36] of the same compound?
**A.** The TGI was 4300 nM.

**Q.** And the GI50 [37]?
**A.** Its GI50 is 1830 nM.

**Q.** What about the TGI [37] of the same compound?
**A.** Its TGI is 5830 nM.

**Q.** And the GI50 [38]?
**A.** Its GI50 is 1750 nM.

**Q.** What about the TGI [38] of the same compound?
**A.** The TGI was 13200 nM.

**Q.** And the GI50 [39]?
**A.** Its GI50 is 477 nM.

**Q.** What about the TGI [39] of the same compound?
**A.** The TGI was 3090 nM.

**Q.** What about the GI50 [40] of the same compound?
**A.** The GI50 was 645 nM.

**Q.** And the TGI [40]?
**A.** The TGI was 3850 nM.

**Q.** And the GI50 [41]?
**A.** Its GI50 is 3270 nM.

**Q.** What about the TGI [41] of the same compound?
**A.** Its TGI is 7640 nM.

**Q.** What about the GI50 [42] of the same compound?
**A.** The GI50 was 2540 nM.

**Q.** What about the TGI [42] of the same compound?
**A.** Its TGI is > 100000 nM.

**Q.** What about the GI50 [43] of the same compound?
**A.** Its GI50 is 666 nM.

**Q.** And the TGI [43]?
**A.** The TGI was 2050 nM.

**Q.** And the GI50 [44]?
**A.** Its GI50 is 2490 nM.

**Q.** What about the TGI [44] of the same compound?
**A.** Its TGI is 7500 nM.

**Q.** What about the GI50 [45] of the same compound?
**A.** The GI50 was 813 nM.

**Q.** And the TGI [45]?
**A.** Its TGI is 4620 nM.

**Q.** And the GI50 [46]?
**A.** The GI50 was 2320 nM.

**Q.** What about the TGI [46] of the same compound?
**A.** The TGI was 10400 nM.

**Q.** And the GI50 [47]?
**A.** Its GI50 is 322 nM.

**Q.** And the TGI [47]?
**A.** Its TGI is 1690 nM.

**Q.** What about the GI50 [48] of the same compound?
**A.** Its GI50 is 691 nM.

**Q.** What about the TGI [48] of the same compound?
**A.** Its TGI is > 100000 nM.

**Q.** What about the GI50 [49] of the same compound?
**A.** Its GI50 is 2350 nM.

**Q.** What about the TGI [49] of the same compound?
**A.** The TGI was 6370 nM.

**Q.** And the GI50 [50]?
**A.** The GI50 was 772 nM.

**Q.** What about the TGI [50] of the same compound?
**A.** The TGI was 3960 nM.

**Q.** And the GI50 [51]?
**A.** Its GI50 is 1860 nM.

**Q.** And the TGI [51]?
**A.** The TGI was 5950 nM.

**Q.** What about the GI50 [52] of the same compound?
**A.** Its GI50 is 928 nM.

**Q.** And the TGI [52]?
**A.** The TGI was 2900 nM.

**Q.** And the GI50 [53]?
**A.** The GI50 was 248 nM.

**Q.** And the TGI [53]?
**A.** The TGI was 1990 nM.
